Measured values: ChEMBL document CHEMBL5143724, “Small Molecules Promote Selective Denaturation and Degradation of Tubulin Heterodimers through a Low-Barrier Hydrogen Bond” (J Med Chem, 2022)
Calls of active or inactive are those of the source. The calls are words filed in the database; no cut-off is given here.

How the values were obtained:
HeLa = experiment: Antiproliferative activity against human HeLa cells assessed as cell viability at 0.001 to 100 uM incubated for 48 hrs by MTT assay; assay type: functional, cell-based; conditions: dose 0.001-100 µM
[1] = target: Tubulin beta (Homo sapiens) (UniProt P68371+Q9H4B7+Q13509+P04350+Q3ZCM7+P07437+Q13885+Q9BVA1+Q9BUF5+A6NNZ2); experiment: Induction of Beta tubulin degradation in human HeLa cells at 0.001 to 100 uM incubated for 16 hrs by immunoblotting analysis; assay type: cell-based; conditions: dose 0.001-100 µM

Activity [1] | SMILES | Activity (HeLa)
Active | c1ccc2c(c1)[nH]c1cnc(NCC3CCCCC3)cc12 | Active
Active | c1ccc(Oc2cccc(CCc3cc4c(cn3)[nH]c3ccccc34)c2)cc1 | Active
Active | c1ccc(CNc2cc3c(cn2)[nH]c2ccccc23)cc1 | Active
Active | c1ccc(Oc2cccc(CNc3ccccn3)c2)cc1 | Active
